According to US20180015101A1, “COMPOSITIONS AND METHODS FOR ANTIGEN-SPECIFIC TOLERANCE” (INSERM (INSTITUT NATIONAL DE LA SANTÉ ET DE LA RECHERCHE …, priority 2014, published 2018):

Columns and labels:
HO-1^+ MoDCs = experiment: MoDC recruitment in draining LN after intradermal injection; type: in vivo; conditions: given as dermal migration inhibitor in CoPP-injected mice
Method: Isolation of murine APCs and co-culture with autoreactive CTLs: For MHC-II^+ and F4/80^+ cells isolation, skin-draining LNs were removed 24 hours after intradermal injection in the back or in the ear. Single-cell suspensions were prepared by enzymatic lymph node disaggregation with collagenase D (Sigma-Aldricht). Cells were stained with anti-MHC-II-FITC (clone AF6-120.1, BD pharmingen) or anti-F4/80-PE (clone BM8, eBioscience) monoclonal antibodies as primary labeling reagent and respectively with anti-FITC or anti-PE microbeads (Miltenyi) as secondary reagent. After magnetic separation, we checked that purity was >82% for CD11b^+CD11c^lowLy6C^highF4/80^+ cells in CoPP-OVA immunized mice. These cells were co-cultured with autoreactive CTLs (respectively 1:1 and 1:5 APC to CTL ratio) overnight for velocity measurement and transwell migration assay. […]

NOD mice = conditions: administered systemically before disease onset; cited from earlier work
C57BL/6 mice = experiment: Experimental Autoimmune Encephalomyelitis (EAE), prophylactic and curative intradermal treatment; type: in vivo; conditions: for protection against EAE (clinical score): i.d., low dose CoPP 0.2 mg/mouse, preventive or curative settings
Method: Experimental Autoimmune Encephalomyelitis (EAE) induction: Briefly, C57BL/6 were immunized by a subcutaneous injection of emulsified complete freund adjuvant (CFA, sigma aldrich) complemented with mycobacterium tuberculosis (400 μg, BD) and MOG35-55 peptide (200 μg, genecust). Pertussis toxin is injected (200 ng i.v, VWR) at the time of immunization and two days later. Clinical signs of EAE were evaluated daily and scored as follows: 0, normal; 1, limp tail; 2, partial paralysis of the hind limbs; 3, complete paralysis of the hind limbs; 4, hind-limb paralysis and forelimb weakness; 5, moribund or deceased
[…] Same injections were repeated twice at three days interval. For curative treatment, mice were treated with one injection in each ear at the EAE onset (i.e., mean clinical score, 0.72±0.1) with the same quantity than in prophylactic treatment. Same injections were repeated twice at three days interval after EAE onset.

Rip-OVA^high mice = experiment: Diabetes induction in Rip-OVAhigh mice by transfer of autoreactive CTLs after immunization; type: in vivo; conditions: intradermal injection one day before CTL transfer
Method: Intradermal immunization of mice and diabetes induction: Eight to ten week-old Rip-OVAhigh mice received two intradermal injections in the back with 70 μg of CoPP (Livchem) prepared as described and 20 μg of endofree ovalbumin (Hyglos) in 10 μl. One hundred and forty micrograms of MnPP (Livchem) prepared as described (18) was added to the preparation for HO-1-inhibition experiments. Forty micrograms of Alexa Fluor® 488 ovalbumin (Molecular Probes) has been used for phagocytosis assay. For diabetes induction, mice were injected i.v. the following day with 0.5×10^5 autoreactive cytotoxic OT-I CD8^+ T cells (purity >95%) previously co-cultured or not with MHC-II^+ or F4/80^+ cells during 4 hours. […]
Histological analysis: For evaluation of insulitis, pancreata were snap-frozen and cryosections (8 μm thick) were acetone-fixed. Sections were stained with H&E (Thermo Electron Corp.), and the degree of insulitis was evaluated microscopically.
Light-sheet-based fluorescent microscopy analysis: Animals were perfused with PFA 4% and washed with PBS. […] For GFP fluorescence imaging, we used a 525/50 band pass filter on the turret. […] The images stacks are analyzed using ImageJ software (Rasband, W. S., ImageJ, U. S. National Institutes of Health, Bethesda, Md., USA, http://imagej.nih.gov/ij/, 1997-2012).

[1] = tested on: Human monocytic THP-1 cells; experiment: HO-1 expression in THP-1 cells after HO-1 inducer treatment; type: cell-based; conditions: 16 hours in vitro
Method: Human THP-1 monocytic cell line and co-culture with CD8^+ T cells clones: THP-I cells were cultured in RPMI 1640 (Gibco) supplemented with 10% fetal bovine serum (Eurobio), 1% glutamine (Gibco), 50 IU/mL penicillin 50 IU/mL streptomycin (Gibco) and 200 nM PMA (Sigma-Aldrich) under standard conditions as previously described (36).
(§1) Flow Cytometry: Single-cells suspensions of spleen and lymph nodes were stained with anti-CD8 (clone 53-6.7), anti-CD45.1 (clone A20), anti-CD49b/α2 (clone DX5), anti-CD49d/α4 (clone RI-2), anti-ITGAE/αE (clone M290), anti-CD29/β1-integrin (clone Ha2/5), anti-CD18/β2-integrin (clone C71/16), anti-CD61/β3-integrin (clone 2C9.G2), anti-CD62E (clone 10E9.6), anti-CD62L (clone Mel14), anti-PSGL1 (clone 2PH1), anti-ICAM-1 (clone 3E2), anti-VCAM-1 (clone 429), anti-CD183/CXCR3 (clone CXCR3-173), anti-CD195/CCR5 (clone C34-3448), anti-GITR (clone DTA-1), anti-PD-1 (clone J43), anti-CD28 (clone 37.51), anti-CD38 (clone 90), anti-CD69 (clone H1.2F3), anti-CD44 (clone IM7), anti-CD107b (clone ABL-93) antibodies. All antibodies are from BD Biosciences. Intracellular staining of HO-1 using BD cytofix/cytoperm kit following manufacturers' recommendations were performed with anti-HO-1 antibody (clone HO-1-2, abcam) as primary labeling reagent and with anti-anti-IgG1 (clone MOPC-21) monoclonal antibody conjugated to a fluorochrome as secondary labeling reagent.

HO-1 [2] = experiment: HO-1 expression in MHC-II+ cells of draining lymph nodes after intradermal injection (FACS); type: in vivo, mice
Method: Isolation of murine APCs and co-culture with autoreactive CTLs: For MHC-II^+ and F4/80^+ cells isolation, skin-draining LNs were removed 24 hours after intradermal injection in the back or in the ear. Single-cell suspensions were prepared by enzymatic lymph node disaggregation with collagenase D (Sigma-Aldricht). Cells were stained with anti-MHC-II-FITC (clone AF6-120.1, BD pharmingen) or anti-F4/80-PE (clone BM8, eBioscience) monoclonal antibodies as primary labeling reagent and respectively with anti-FITC or anti-PE microbeads (Miltenyi) as secondary reagent. After magnetic separation, we checked that purity was >82% for CD11b^+CD11c^lowLy6C^highF4/80^+ cells in CoPP-OVA immunized mice. These cells were co-cultured with autoreactive CTLs (respectively 1:1 and 1:5 APC to CTL ratio) overnight for velocity measurement and transwell migration assay.
Intradermal immunization of mice and diabetes induction: Eight to ten week-old Rip-OVAhigh mice received two intradermal injections in the back with 70 μg of CoPP (Livchem) prepared as described and 20 μg of endofree ovalbumin (Hyglos) in 10 μl. One hundred and forty micrograms of MnPP (Livchem) prepared as described (18) was added to the preparation for HO-1-inhibition experiments. Forty micrograms of Alexa Fluor® 488 ovalbumin (Molecular Probes) has been used for phagocytosis assay. For diabetes induction, mice were injected i.v. the following day with 0.5×10^5 autoreactive cytotoxic OT-I CD8^+ T cells (purity >95%) previously co-cultured or not with MHC-II^+ or F4/80^+ cells during 4 hours.
as §1

Human PBMC = experiment: HO-1 expression in human PBMC after in vitro hemin treatment; type: cell-based; conditions: 4 hours in vitro
Method: Human and non-human primate PBMC: Human PBMCs were obtained at the Etablissement Français du Sang in Nantes from blood of healthy donors. After Ficoll-Paque density gradient centrifugation (GE Healthcare), PBMC were cultured in RPMI 1640 (Gibco) supplemented with 10% fetal bovine serum (Eurobio), 1% glutamine (Gibco), 50 IU/mL penicillin 50 IU/mL streptomycin (Gibco) in presence or not of CoPP or hemin during 4 hours.
as §1, with “Intracellular staining of HO-1 using BD cytofix/cytoperm kit following manufacturers' recommendations were performed with anti-HO-1 antibody (clone HO-1-2, abcam) as primary labeling reagent and with anti-anti-IgG1 (clone MOPC-21) monoclonal antibody conjugated to a fluorochrome as secondary labeling reagent.” left out

HO-1 [3] = experiment: HO-1 induction in lymph nodes of baboons after intradermal Normosang; type: in vivo, Baboons (Papio anubis); conditions: 24 h after intradermal 6.25, 12.5 or 25 mg
Method: Non-Human primates: Baboons (Papio anubis, from the CNRS Primatology Center, Rousset, France) were negative for all quarantine tests. Animals were housed at the large animal facility of our laboratory following the recommendations of the Institutional Ethical Guidelines of the Institut National de la Santé Et de la Recherche Médicale, France. All experiments were performed under general anaesthesia with Zoletil (Virbac, Carron, France). Three Baboons were injected intradermally in the inguinal fold with respectively 6.25 mg (500 μL), 12.5 mg (500 μL) or 25 mg (1 mL) of clinical hemin (Normosang®). A non-treated baboon has served as control. Inguinal lymph nodes were surgically removed 24 hours after intradermal injection. Single-cell suspensions for flow cytometry analysis were prepared by enzymatic lymph node disaggregation with Collagenase D (Sigma-Aldricht).
Intradermal immunization with Normosang®: Three Baboons were injected intradermally in the inguinal fold with respectively 6.25 mg (500 μL), 12.5 mg (500 μL) or 25 mg (1 mL) of clinical hemin (Normosang®). A non-treated baboon has served as control.
Inguinal lymph nodes were surgically removed 24 hours after intradermal injection. Single-cell suspensions for flow cytometry analysis were prepared by enzymatic lymph node disaggregation with Collagenase D (Sigma-Aldricht). […]

[4] = after CoPP intradermal injection

| Compound | effect on T1D (NOD mice) | protection against EAE (clinical score) (C57BL/6 mice) | diabetes development (Rip-OVA^high mice) | HO-1 expression in THP-1 cells [1] | also measured |
| --- | --- | --- | --- | --- | --- |
| O=C(O)CCCCCCC1C(=O)NC(=O)N1CCC(O)C1CCCCC1 (stereo not shown) [BW245c] |  |  |  |  | effect on MoDC recruitment (HO-1^+ MoDCs): did not affect |
| [C-]#[O+] [CO, carbon monoxide] | inhibit T1D in NOD mice |  |  |  |  |
| C=CC1=C(C)c2cc3[n-]c(cc4nc(cc5[n-]c(cc1n2)c(C)c5CCC(=O)[O-])C(CCC(=O)[O-])=C4C)c(C)c3C=C.[Co+2].[H+].[H+] [CoPP, Cobalt protoporphyrin] | inhibit T1D in NOD mice | not sufficient to tolerize against EAE | protection was not observed | dose-dependently expressed HO-1 | MOG-specific CD4+ T-cell proliferation capacity (C57BL/6 mice; vs untreated mice): same proliferation capacity; duration of HO-1 induction (HO-1 [2]; [4]): at least 72 hours; earliest time HO-1 induction observed (HO-1 [2]; [4]): ≤ 24 h; localisation of HO-1 induction (HO-1 [2]; intradermal injection): restricted to the draining LNs; increase of HO-1 expression in MHC-II+ cells in draining lymph nodes (HO-1 [2]; intradermal injection, RIP-OVAhigh mice): 5.8 fold |
| MOG35-55: myelin oligodendrocyte glycoprotein (MOG) 35-55 peptide, cognate antigen in EAE (MEVGWYRSPFSRVVHLYRNGK; UniProt Q61885 63-83, looked up, fragment) |  | protection was not observed |  |  |  |
| ovalbumin |  |  | protection was not observed |  |  |
| protoporphyrin IX containing a ferric iron ion (Heme B) with a chloride ligand [hemin] |  |  |  | dose-dependently expressed HO-1 | HO-1 expression in human MHC-II+CD11clowCD14+ cells (Human PBMC): induced highest HO-1 expression; frequency of HO-1+ cells in draining LN (HO-1 [3]): dose-dependently increased |
